According to the kinase profiling compilation of Christmann-Franck et al. (2016):

How the values were obtained:
Assay in all cases: radiometric filter-binding kinase assay, Kinase HotSpot
Settings in all cases: compound 0.5 µM; ATP 10 µM
STK10 (human) = STK10 (human) (UniProt O94804)
DYRK3 (human) = DYRK3 (human) (UniProt O43781)
ALK (human) = ALK (human) (UniProt Q9UM73)
RPS6KA4 KD2 (human) = RPS6KA4 KD2 (human) (UniProt O75676)
MAP3K8 (human) = MAP3K8 (human) (UniProt P41279)
ACVRL1 (human) = ACVRL1 (human) (UniProt P37023)
ROCK1 (human) = ROCK1 (human) (UniProt Q13464)
WNK3 (human) = WNK3 (human) (UniProt Q9BYP7)
IRAK1 (human) = IRAK1 (human) (UniProt P51617)
HCK (human) = HCK (human) (UniProt P08631)
LIMK1 (human) = LIMK1 (human) (UniProt P53667)
MLTK (human) = MLTK (human) (UniProt Q9NYL2)
NLK (human) = NLK (human) (UniProt Q9UBE8)
PRKCH (human) = PRKCH (human) (UniProt P24723)
EPHA6 (human) = EPHA6 (human) (UniProt Q9UF33)
PDGFRA (human) = PDGFRA (human) (UniProt P16234)
SRC (human) = SRC (human) (UniProt P12931)
MYO3B (human) = MYO3B (human) (UniProt Q8WXR4)
MAPK10 (human) = MAPK10 (human) (UniProt P53779)
CAMK2A (human) = CAMK2A (human) (UniProt Q9UQM7)
PLK2 (human) = PLK2 (human) (UniProt Q9NYY3)
CDC42BPB (human) = CDC42BPB (human) (UniProt Q9Y5S2)
NEK9 (human) = NEK9 (human) (UniProt Q8TD19)
BRAF (human) = BRAF (human) (UniProt P15056)
EPHA8 (human) = EPHA8 (human) (UniProt P29322)
MAP3K11 (human) = MAP3K11 (human) (UniProt Q16584)
MARK1 (human) = MARK1 (human) (UniProt Q9P0L2)
SIK2 (human) = SIK2 (human) (UniProt Q9H0K1)
CHEK1 (human) = CHEK1 (human) (UniProt O14757)
TGFBR2 (human) = TGFBR2 (human) (UniProt P37173)
[1] = test system: PRKCQ (human), Q04759 [P330L]
NUAK2 (human) = NUAK2 (human) (UniProt Q9H093)
TLK2 (human) = TLK2 (human) (UniProt Q86UE8)
GSG2 (human) = GSG2 (human) (UniProt Q8TF76)
MERTK (human) = MERTK (human) (UniProt Q12866)
STK24 (human) = STK24 (human) (UniProt Q9Y6E0)
TAOK2 (human) = TAOK2 (human) (UniProt Q9UL54)
CLK3 (human) = CLK3 (human) (UniProt P49761)
CDK4 CCND1 (human) = CDK4 CCND1 (human) (UniProt P24385+P11802)
OXSR1 (human) = OXSR1 (human) (UniProt O95747)
MAPK13 (human) = MAPK13 (human) (UniProt O15264)
[2] = molecular target: JAK1 JH1 catalytic (human) (UniProt P23458)

ROCK1 (human), sequence (Q13464 whole entry, looked up): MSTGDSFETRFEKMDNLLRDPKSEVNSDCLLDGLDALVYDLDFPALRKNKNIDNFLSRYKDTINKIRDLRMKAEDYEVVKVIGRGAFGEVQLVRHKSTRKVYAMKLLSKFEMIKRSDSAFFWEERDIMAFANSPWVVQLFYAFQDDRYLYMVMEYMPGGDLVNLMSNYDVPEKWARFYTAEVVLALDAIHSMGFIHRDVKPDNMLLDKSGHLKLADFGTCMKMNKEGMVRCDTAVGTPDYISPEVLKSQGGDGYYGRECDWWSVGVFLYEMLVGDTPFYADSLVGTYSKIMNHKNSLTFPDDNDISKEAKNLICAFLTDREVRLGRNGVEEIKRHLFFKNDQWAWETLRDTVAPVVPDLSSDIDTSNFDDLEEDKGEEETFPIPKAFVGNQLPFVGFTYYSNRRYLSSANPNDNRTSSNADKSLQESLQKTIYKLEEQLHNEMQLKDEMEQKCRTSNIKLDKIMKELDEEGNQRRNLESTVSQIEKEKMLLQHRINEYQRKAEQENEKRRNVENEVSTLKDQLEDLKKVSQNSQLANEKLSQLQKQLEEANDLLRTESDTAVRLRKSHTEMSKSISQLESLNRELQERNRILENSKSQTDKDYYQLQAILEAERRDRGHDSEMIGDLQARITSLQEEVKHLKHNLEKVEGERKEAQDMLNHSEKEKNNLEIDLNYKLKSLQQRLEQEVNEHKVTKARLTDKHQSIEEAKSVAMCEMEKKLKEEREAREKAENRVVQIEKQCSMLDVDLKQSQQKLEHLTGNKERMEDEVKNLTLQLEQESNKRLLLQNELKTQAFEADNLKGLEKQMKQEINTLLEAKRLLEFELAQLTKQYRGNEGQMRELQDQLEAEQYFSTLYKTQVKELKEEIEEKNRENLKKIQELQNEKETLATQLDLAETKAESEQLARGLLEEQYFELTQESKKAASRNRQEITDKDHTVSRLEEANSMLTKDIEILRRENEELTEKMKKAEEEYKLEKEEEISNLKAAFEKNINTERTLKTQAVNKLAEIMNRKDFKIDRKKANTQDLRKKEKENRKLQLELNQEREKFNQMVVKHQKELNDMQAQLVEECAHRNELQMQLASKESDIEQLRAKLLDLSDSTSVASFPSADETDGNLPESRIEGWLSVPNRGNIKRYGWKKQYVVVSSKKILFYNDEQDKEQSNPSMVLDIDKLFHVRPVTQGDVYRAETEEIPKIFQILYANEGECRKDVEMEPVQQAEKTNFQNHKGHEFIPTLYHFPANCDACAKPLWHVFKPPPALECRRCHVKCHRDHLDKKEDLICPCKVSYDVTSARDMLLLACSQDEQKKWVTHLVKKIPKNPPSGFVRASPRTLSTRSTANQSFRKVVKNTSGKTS
DYRK3 (human), sequence (O43781 whole entry, looked up): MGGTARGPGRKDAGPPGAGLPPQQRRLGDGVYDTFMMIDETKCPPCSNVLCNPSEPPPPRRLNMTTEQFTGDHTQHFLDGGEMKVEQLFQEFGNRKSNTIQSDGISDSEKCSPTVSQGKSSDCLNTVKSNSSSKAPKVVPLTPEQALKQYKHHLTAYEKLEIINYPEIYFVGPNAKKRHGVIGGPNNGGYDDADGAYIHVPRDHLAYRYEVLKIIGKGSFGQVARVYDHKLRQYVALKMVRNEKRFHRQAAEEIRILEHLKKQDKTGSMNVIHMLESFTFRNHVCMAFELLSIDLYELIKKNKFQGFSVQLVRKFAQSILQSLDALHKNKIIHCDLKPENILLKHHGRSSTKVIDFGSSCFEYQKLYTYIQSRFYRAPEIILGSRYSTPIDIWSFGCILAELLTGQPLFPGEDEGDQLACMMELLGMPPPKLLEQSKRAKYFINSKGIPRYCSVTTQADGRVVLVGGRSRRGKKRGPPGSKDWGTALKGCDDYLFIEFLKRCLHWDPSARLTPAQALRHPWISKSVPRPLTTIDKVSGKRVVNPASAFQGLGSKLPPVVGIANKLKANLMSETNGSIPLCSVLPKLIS
MYO3B (human), sequence (Q8WXR4 whole entry, looked up): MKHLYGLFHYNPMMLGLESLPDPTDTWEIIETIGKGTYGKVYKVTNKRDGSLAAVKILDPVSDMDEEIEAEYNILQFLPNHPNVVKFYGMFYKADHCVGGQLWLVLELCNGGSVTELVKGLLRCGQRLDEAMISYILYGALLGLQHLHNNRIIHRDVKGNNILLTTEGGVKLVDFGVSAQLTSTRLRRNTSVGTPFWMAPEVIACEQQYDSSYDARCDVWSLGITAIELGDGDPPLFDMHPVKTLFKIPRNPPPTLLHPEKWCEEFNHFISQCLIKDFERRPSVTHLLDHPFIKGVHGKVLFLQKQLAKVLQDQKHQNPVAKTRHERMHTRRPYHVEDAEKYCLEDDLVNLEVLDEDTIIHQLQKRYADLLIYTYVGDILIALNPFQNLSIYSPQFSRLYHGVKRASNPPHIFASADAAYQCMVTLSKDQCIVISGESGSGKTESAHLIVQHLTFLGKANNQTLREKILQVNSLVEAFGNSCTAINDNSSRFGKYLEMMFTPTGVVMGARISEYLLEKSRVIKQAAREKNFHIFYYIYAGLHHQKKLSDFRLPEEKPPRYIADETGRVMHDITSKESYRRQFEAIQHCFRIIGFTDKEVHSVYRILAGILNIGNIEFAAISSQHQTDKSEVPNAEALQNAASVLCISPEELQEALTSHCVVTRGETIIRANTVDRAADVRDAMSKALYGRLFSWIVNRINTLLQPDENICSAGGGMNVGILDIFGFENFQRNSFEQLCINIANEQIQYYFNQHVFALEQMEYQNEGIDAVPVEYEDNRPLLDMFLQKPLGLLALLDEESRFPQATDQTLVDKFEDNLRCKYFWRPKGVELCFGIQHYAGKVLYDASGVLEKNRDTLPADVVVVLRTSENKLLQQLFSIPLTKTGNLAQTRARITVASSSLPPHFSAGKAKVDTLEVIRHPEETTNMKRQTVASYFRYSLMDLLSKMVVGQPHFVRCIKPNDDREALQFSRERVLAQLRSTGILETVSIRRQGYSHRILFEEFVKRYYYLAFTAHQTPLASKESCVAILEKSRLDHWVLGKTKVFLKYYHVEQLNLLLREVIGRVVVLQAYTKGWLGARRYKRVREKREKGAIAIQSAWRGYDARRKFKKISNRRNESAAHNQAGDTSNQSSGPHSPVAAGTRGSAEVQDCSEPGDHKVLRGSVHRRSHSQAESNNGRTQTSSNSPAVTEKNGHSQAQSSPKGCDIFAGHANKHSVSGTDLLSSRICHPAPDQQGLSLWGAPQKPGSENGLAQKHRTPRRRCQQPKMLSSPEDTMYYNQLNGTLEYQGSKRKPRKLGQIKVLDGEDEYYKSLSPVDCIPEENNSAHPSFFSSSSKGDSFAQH
MERTK (human), sequence (Q12866 whole entry, looked up): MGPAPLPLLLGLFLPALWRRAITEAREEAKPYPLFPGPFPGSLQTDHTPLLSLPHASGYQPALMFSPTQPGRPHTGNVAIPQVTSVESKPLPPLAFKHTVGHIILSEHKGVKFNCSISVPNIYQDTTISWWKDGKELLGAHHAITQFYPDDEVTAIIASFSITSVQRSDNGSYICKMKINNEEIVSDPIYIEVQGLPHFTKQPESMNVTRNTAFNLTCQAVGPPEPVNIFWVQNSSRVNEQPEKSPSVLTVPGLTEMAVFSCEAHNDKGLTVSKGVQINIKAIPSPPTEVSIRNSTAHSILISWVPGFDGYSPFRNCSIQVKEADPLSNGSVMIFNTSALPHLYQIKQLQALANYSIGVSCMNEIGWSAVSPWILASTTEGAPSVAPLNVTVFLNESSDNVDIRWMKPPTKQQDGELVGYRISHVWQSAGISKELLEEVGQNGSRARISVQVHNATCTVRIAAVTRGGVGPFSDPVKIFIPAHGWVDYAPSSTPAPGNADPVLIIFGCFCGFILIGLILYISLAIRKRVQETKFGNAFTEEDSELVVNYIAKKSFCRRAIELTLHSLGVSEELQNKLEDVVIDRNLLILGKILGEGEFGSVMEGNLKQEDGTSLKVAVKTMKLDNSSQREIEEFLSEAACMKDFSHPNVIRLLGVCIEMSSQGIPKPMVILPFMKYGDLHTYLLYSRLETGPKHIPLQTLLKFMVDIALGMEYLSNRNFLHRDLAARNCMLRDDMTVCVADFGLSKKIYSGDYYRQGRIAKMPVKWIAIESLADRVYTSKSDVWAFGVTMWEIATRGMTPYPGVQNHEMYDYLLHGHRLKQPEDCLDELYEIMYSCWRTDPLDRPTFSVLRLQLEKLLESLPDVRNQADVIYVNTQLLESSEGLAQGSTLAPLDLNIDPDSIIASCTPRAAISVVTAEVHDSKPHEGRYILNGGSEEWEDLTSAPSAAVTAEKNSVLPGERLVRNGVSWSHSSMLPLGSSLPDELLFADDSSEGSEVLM
PRKCH (human), sequence (P24723 whole entry, looked up): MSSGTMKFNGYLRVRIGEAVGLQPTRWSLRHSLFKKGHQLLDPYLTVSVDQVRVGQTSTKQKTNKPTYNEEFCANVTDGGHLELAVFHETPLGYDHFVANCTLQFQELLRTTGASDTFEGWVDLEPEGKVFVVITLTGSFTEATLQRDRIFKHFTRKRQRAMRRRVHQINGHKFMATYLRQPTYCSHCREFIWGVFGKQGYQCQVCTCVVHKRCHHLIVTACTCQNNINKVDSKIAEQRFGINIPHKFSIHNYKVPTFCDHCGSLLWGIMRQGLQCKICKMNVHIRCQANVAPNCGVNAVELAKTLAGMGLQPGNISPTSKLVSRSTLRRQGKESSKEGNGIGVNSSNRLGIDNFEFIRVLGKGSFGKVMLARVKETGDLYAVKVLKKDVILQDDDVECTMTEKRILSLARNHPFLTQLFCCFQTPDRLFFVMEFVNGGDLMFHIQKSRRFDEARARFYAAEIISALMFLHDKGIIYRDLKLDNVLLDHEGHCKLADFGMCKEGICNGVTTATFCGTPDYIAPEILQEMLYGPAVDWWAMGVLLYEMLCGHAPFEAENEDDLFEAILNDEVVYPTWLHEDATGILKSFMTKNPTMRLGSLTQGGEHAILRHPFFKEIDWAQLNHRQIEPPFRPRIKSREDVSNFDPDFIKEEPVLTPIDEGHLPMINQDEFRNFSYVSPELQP

C[C@@H]1CCN(C(=O)CC#N)C[C@@H]1N(C)c1ncnc2[nH]ccc12
residual activity (STK10 (human)): 92.9% | residual activity (DYRK3 (human)): 106% | residual activity (ALK (human)): 107% | residual activity (RPS6KA4 KD2 (human)): 105% | residual activity (MAP3K8 (human)): 93.5% | residual activity (ACVRL1 (human)): 100% | residual activity (ROCK1 (human)): 90.1% | residual activity (WNK3 (human)): 104% | residual activity (IRAK1 (human)): 93.9% | residual activity (HCK (human)): 88.3% | residual activity (LIMK1 (human)): 82% | residual activity (MLTK (human)): 98.2% | residual activity (NLK (human)): 110% | residual activity (PRKCH (human)): 100% | residual activity (EPHA6 (human)): 99% | residual activity (PDGFRA (human)): 104% | residual activity (SRC (human)): 99.8% | residual activity (MYO3B (human)): 89.3% | residual activity (MAPK10 (human)): 100% | residual activity (CAMK2A (human)): 99.6% | residual activity (PLK2 (human)): 102% | residual activity (CDC42BPB (human)): 95.4% | residual activity (NEK9 (human)): 96.2% | residual activity (BRAF (human)): 93.7% | residual activity (EPHA8 (human)): 109% | residual activity (MAP3K11 (human)): 104% | residual activity (MARK1 (human)): 119% | residual activity (SIK2 (human)): 89.2% | residual activity (CHEK1 (human)): 94.1% | residual activity (TGFBR2 (human)): 98.8% | residual activity [1]: 89% | residual activity (NUAK2 (human)): 80.3% | residual activity (TLK2 (human)): 94.4% | residual activity (GSG2 (human)): 77.9% | residual activity (MERTK (human)): 114% | residual activity (STK24 (human)): 96.1% | residual activity (TAOK2 (human)): 100% | residual activity (CLK3 (human)): 106% | residual activity (CDK4 CCND1 (human)): 94.1% | residual activity (OXSR1 (human)): 98.2%

Cc1cccc(-c2nc(C(C)(C)C)[nH]c2-c2ccc3c(c2)OCO3)n1
residual activity (STK10 (human)): 94.5% | residual activity (DYRK3 (human)): 102% | residual activity (ALK (human)): 103% | residual activity (MAP3K8 (human)): 94.5% | residual activity (ACVRL1 (human)): 127% | residual activity (ROCK1 (human)): 101% | residual activity (WNK3 (human)): 94.1% | residual activity (IRAK1 (human)): 118% | residual activity (HCK (human)): 90.7% | residual activity (LIMK1 (human)): 86.2% | residual activity (MLTK (human)): 97.8% | residual activity (NLK (human)): 87.9% | residual activity (PRKCH (human)): 104% | residual activity (EPHA6 (human)): 92.7% | residual activity (PDGFRA (human)): 94.1% | residual activity (SRC (human)): 96% | residual activity (MYO3B (human)): 79.2% | residual activity (MAPK10 (human)): 96% | residual activity (MAPK13 (human)): 107% | residual activity [2]: 96.1% | residual activity (CAMK2A (human)): 103% | residual activity (PLK2 (human)): 92.1% | residual activity (CDC42BPB (human)): 102% | residual activity (NEK9 (human)): 95.6% | residual activity (BRAF (human)): 111% | residual activity (EPHA8 (human)): 89.9% | residual activity (MAP3K11 (human)): 96.2% | residual activity (MARK1 (human)): 85.1% | residual activity (SIK2 (human)): 91.4% | residual activity (CHEK1 (human)): 89.8% | residual activity (TGFBR2 (human)): 105% | residual activity [1]: 107% | residual activity (NUAK2 (human)): 138% | residual activity (TLK2 (human)): 103% | residual activity (GSG2 (human)): 78.7% | residual activity (MERTK (human)): 82% | residual activity (STK24 (human)): 100% | residual activity (TAOK2 (human)): 87.6% | residual activity (CLK3 (human)): 104% | residual activity (CDK4 CCND1 (human)): 105% | residual activity (OXSR1 (human)): 103%
